This note sets out measurements from patent US5594001A, “Polycyclic systems, and derivatives thereof, as neurotransmitter release enhancers useful in the treatment of cognitive disorders” (The DuPont Merck Pharmaceutical Company, priority 1994, dated 1997).

The structures appear in SMILES notation. Where a name gives a salt, the structure may show the parent alone.

By EC50 is commonly meant the concentration giving half of the maximal effect. A low value points to a more potent agent.

Assay [1] deals with stimulus-induced acetylcholine release, slices from the parietal cortex. The assay is described as follows: Neurotransmitter (ACh) release assay, rat cortex slices, K+ stimulated. The following applies: for activation at 10 µM: Table II, % increase of drug-induced ACh release; for EC50: Table III. The assay is classed as cell-based, rat (male Wistar). Here is the method:
The neurotransmitter release activities of the compounds of this invention were determined using standard biochemical assay procedures for example, the neurotransmitter release assay as described below.
Neurotransmitter release assay.
The neurotransmitter (Ach) release activities of the compounds of this invention were determined by the assay as described by Nickolson, et al., Drug Development Research, (1990) 19: 285-300, a modification of the procedure described by Mulder, et al., Brain Res., (1974) 70: 372.
Male Wistar rats (Charies River) weighing 175-200 grams were used. Rats were decapitated and brains were dissected immediately. Slices (0.3 mm thick) from the parietal cortex were prepared (approximately 100 mg wet weight) and were incubated in 10 ml KrebsRinger medium (KR) containing NaCl (116 mM), KCl (3 mM), CaCl2 (1.3 mM), MgCl2 (1.2 mM), KH2 PO4 (1.2 mM), Na2 SO4 (1.2 mM), NaHCO3 (25.0 mM), and glucose (11.0 mM), to which was added 10 uCi ^3 H-choline (specific activity approximately 35 Ci/mM; NEN) and […] unlabeled choline to give a final concentration of one micromole. The brain preparations were incubated for 30 min. at 37° C. under a steady flow of 95% O2 /5% CO2. Under these conditions, part of the radioactive choline taken up by the preparation was converted into radioactive acetylcholine (ACh) by the cholinergic nerve endings stored in synaptic vesicles, and released upon depolarization by high potassium ion (K+) containing media.
After labelling of the ACh stores, the slices were washed three times with non-radioactive KR medium and transferred to a superfusion apparatus to measure the drug effects on ACh release. The superfusion apparatus consisted of 10 thermostated glass columns of 5 mm diameter that were provided with GF/F glass fiber filters to support the slices (approximately 10 mg tissue/column). Superfusion was carried out in KR-medium (0.3 ml/min.) containing […] hemicholine-3 (HC-3). The HC-3 prevents the reuptake of choline formed during the superfusion from phospholipids and released ACh, which would be converted into unlabeled ACh and released in preference to the preformed labeled ACh. The medium was delivered by a 25-channel peristaltic pump (Ismatec by Brinkman) and warmed to 37° C. in a thermostated stainless steel coil before entering the superfusion column. Each column was provided with a 4-way slider valve (Beckmann instruments) which allowed rapid change of low to high K+/KR-medium, and with two 10-channel 3-way valves that were used to change from drug-free to drug-containing low and high K+/KR-medium. After 15 min. of washout of non-specifically bound radioactivity, collection of 4 min. fractions was initiated. After three 4 min. collections, the original medium was changed to a KR-medium in which the KCl concentration had been increased to 25 mM (high K+ medium) (S1). Depolarization-induced stimulation of release by high K+/KR-medium lasted for 4 min. Drug free low and high K+/KR-media were then substituted by drug- and vehicle-containing low- and high-K+/KR-medium, and superfusion was continued for three 4 min. collections with low K+/KR-medium, one 4 min. collection with high K+/KR-medium (s2), and two 4 min. collections with low K+/KR-medium.
Drug was added to the media by 100-fold dilutions of appropriate concentrations of the drug (in 0.9% saline) with either low- or high-K+/KR-medium. For comparative purposes, linopirdine was also run.
All superfusion fractions were collected in liquid scintillation counting vials. After superfusion, the slices were removed from the superfusion columns and extracted with 1.0 ml of 0.1N HCl. Liquiscint (NEN) counting fluid (12 ml) was added to superfusion fractions and extracts, and the samples were counted in a Packard Tricarb Liquid Scintillation Counter. No corrections were made for quenching. […]

Assay [2] deals with ACh level in the rat hippocampus. As to the kind of experiment: Microdialysis, ACh levels in the rat hippocampus in vivo. More on the design: species or system rat (male Wistar). The note with it: Table IV, 5 mg/kg, vehicle methocel; for Duration, minutes of release above statistical significance: NSP = no significant points. As to the method:
Male Wistar Rats are anaesthetized and guide cannulas stereotaxically implanted into the brain at the level of the dorsal hippocampus. Following a minimum recovery period of 72 h, dialysis probes (0.5 mm diameter, 4.0 mm long, from BAS) are inserted into the hippocampus through the guide cannulas. The probes are perfused at a rate of 2 μl/min with artificial cerebrospinal fluid containing 100 μM physostigmine sulfate (a cholinesterase inhibitor). Rats are allowed to acclimate for 2 hours prior to sample collection. Dialysate samples are collected every 20 min (40 μl) and immediately injected onto a high performance liquid chromatograph equipped for electrochemical detection (HPLC-EC) of acetylcholine (ACh). Following collection of 3 baseline samples, drugs or vehicle control are administered in 0.01 ml/g body weight and dialysate samples are collected for an additional 3 h. The ACh peak heights of the 3 samples prior to drug administration are averaged together to determine baseline ACh levels. ACh peak heights post drug administration are measured and used to determine percent change over baseline ACh levels. At the end of experiments, probe placement is verified histologically.
ACh is separated by reverse phase chromatography (Hamilton PRP-1 column 150×4.5 mm) and converted to acetate, betaine and hydrogen peroxide on an immobilized enzyme reactor column (BAS). Hydrogen peroxide is then detected electrochemically. Mobile phase for the chromatography consists of 0.2M Na2 HPO4, 0.1 mM EDTA, 0.5 mM SOS, 0.9 mM TMA.Cl, with pH adjusted to 8.0 with phosphoric acid and […] Kathon CG (ESA) added to each liter of mobile phase to retard bacterial growth.
FIGS. 1 and 2 show the effects of fluorine substitution to the pendant groups of the anthrone and azafluorene core series on the ability of compounds to increase the level of ACh in the rat hippocampus in vivo. All compounds were tested at 5 mg/kg except Ex. No 64 which was administered at 1 mg/kg. […] This was observed even though the compound was administered by a route (i.p.) which should lead to greater bioavailability than the oral route. Example 68 of the present invention, the bis-fluorinated analog of Example 611 or U.S. Pat. No. 5,173,489, on the other hand, led to a 2-fold increase in ACh levels which was maintained for over 1 hour (FIG. 1). The anthrone compound Ex. No. 440 of U.S. Pat. No. 5,173,489, at 5 mg/kg, led to a peak ACh level of 72% over baseline (FIG. 2). Ex. No. 64 of the present invention, which is the bis-fluoro analog of Ex. No. 440 of U.S. Pat. No. 5,173,489, at 1 mg/kg, led to a delayed increase in ACh levels reaching a peak of over 100% above baseline (FIG. 2). In contrast to the observed effects of Example 440 of U.S. Pat. No. 5,173,489, the increase in ACh level after administration of Example 64 of the present invention was maintained for the entire duration of testing (3 hours).

Regarding `c1ccc2c(c1)-c1sccc1C2Cc1ccncc1` (stereo not drawn) [Example 1, 4-(4-Pyridinylmethyl)-4H-indeno[1,2-B]thiophene], in assay [1], the activation at 10 µM is 92%.
`Fc1cc(CC2(Cc3ccnc(F)c3)c3ccccc3-c3nc(-c4ccccc4)ncc32)ccn1` [Example 76, 5,5-Bis((2-fluoro-4-pyridinyl)methyl)-2-phenyl-5H-indeno[1,2-d]pyrimidine] yielded an EC50 in assay [1] of 660 nM. In assay [2], the “AUC, Area % under the curve” value came to 96 ± 67%; the “Peak, maximal % increase of ACh release over baseline” value is listed as 39 ± 25%; the “time of Peak after administration” value turned out to be 20 min; the “Duration, minutes of release above statistical significance” value is listed as “NSP”.
As to `Fc1cc(CC2(Cc3ccnc(F)c3)c3cccnc3-c3cccnc32)ccn1` [Example 75, 9,9-Bis((2-fluoro-4-pyridinyl)methyl)-cyclopenta[1,2-b:3,4-b']dipyridine], the EC50 in assay [1] was found to be 1210 nM. For the same compound, in assay [2], the “AUC, Area % under the curve” value is given as 302 ± 35%; the “Peak, maximal % increase of ACh release over baseline” value is 67 ± 12%; the “time of Peak after administration” value turned out to be 20 min; the “Duration, minutes of release above statistical significance” value was 60 min.
As to `CCOC(=O)CC1(Cc2ccncc2)c2ccccc2-c2sccc21` (stereo not drawn) [Example 4, 4-(4-Pyridinylmethyl)-4H-indeno[1,2-B]thiophene-4-acetic acid, Ethyl Ester Hydrochloride], in assay [1], the activation at 10 µM was determined as 146%.
In assay [1], `c1ccc(CC2(Cc3ccncc3)c3ccccc3-c3sccc32)cc1` (stereo not drawn) [Example 8] gave an activation at 10 µM of 130%.
Consider `c1cnc2c(c1)C(Cc1ccncc1)c1ccsc1-2` (stereo not drawn) [Example 10, 4-(4-Pyridinylmethyl)-4H-thieno[2',3':3,4]cyclopenta[1,2-B]pyridine], for which, in assay [1], the activation at 10 µM came out at 118%.
`COc1ccc2c(c1)C(Cc1ccnc(F)c1)(Cc1ccnc(F)c1)c1ccccc1C2=O` [Example 77, 10,10-Bis((2-fluoro-4-pyridinyl)methyl)-3-methoxy-9(10H)-anthracenone] had a 50% effective concentration (EC50) in assay [1] of 660 nM.
`Fc1cc(CC2(Cc3ccncc3)c3ccccc3Oc3ncccc32)ccn1` (stereo not drawn) [Example 70, 9-((2-Fluoro-4-pyridinyl)methyl)-9-(4-pyridinylmethyl)-4-azaxanthene] showed an EC50 in assay [1] of 350 nM.
Regarding `NC(=O)CCCCC1(Cc2ccncc2)c2ccccc2-c2sccc21` (stereo not drawn) [Example 6, 4-(4-Pyridinylmethyl)-4H-indeno[1,2-B]thiophene-4-pentanamide Hydrochloride Hydrate], in assay [1], the activation at 10 µM came to 163%.
With `N#CCCCCC1(Cc2ccncc2)c2ccccc2-c2sccc21` (stereo not drawn) [Example 3, 4-(4-Pyridinylmethyl)-4H-indeno[1,2-B]thiophene-4-pentanenitrile Hydrobromide Hydrate], the activation at 10 µM in assay [1] was found to be 145%.
In turn, `N#Cc1cccc(CC2(Cc3ccncc3)c3ccccc3-c3sccc32)c1` (stereo not drawn) [Example 2, 3-[4-(4-Pyridinylmethyl)-4H-indeno[1,2-B]thiophen-4-ylmethyl-benzonitrile Hydrobromide Hydrate] returned an activation at 10 µM in assay [1] of 220%.
`Fc1cc(CC2(Cc3ccncc3)c3cccnc3-c3sccc32)ccn1` (stereo not drawn) [Example 11, 4-[(2-Fluoro-4-pyridinyl)methyl]-4-(4-pyridinylmethyl)-4H-thieno[3',2':4,5]cyclopenta[1,2-B]pyridine] had an activation at 10 µM in assay [1] of 757%.
Same read-out and setting: for `CC(=O)OCCCCC1(Cc2ccncc2)c2ccccc2-c2sccc21` (stereo not drawn) [Example 5, 4-(4-Pyridinylmethyl)-4H-indeno[1,2-B]thiophene-4-butanol Acetate (Ester) Hydrochloride] the value was 224%.
As for `Fc1cc(CC2(Cc3ccnc(F)c3)c3ccccc3-c3nccnc32)ccn1` [Example 80, 9,9-Bis((2-fluoro-4-pyridinyl)methyl)-9H-indeno-[1,2-b]pyrazine], the EC50 in assay [1] was 2330 nM.
For the compound `O=C1c2ccccc2C(Cc2ccncc2)(Cc2ccnc(F)c2)c2ccccc21` [Example 66], the response in assay [1] was half-maximal at 310 nM (EC50).
In assay [1], `COc1ccc2c(c1)C(=O)c1ccc(OC)cc1C2(Cc1ccnc(F)c1)Cc1ccnc(F)c1` [Example 74, 10,10-Bis((2-fluoro-4-pyridinyl)methyl)-2,6-dimethoxy-9(10H)-anthracenone] had an EC50 of 880 nM.
The compound `Nc1cccc2c1C(Cc1ccnc(F)c1)(Cc1ccnc(F)c1)c1ccccc1-2` [Example 96, 9,9-Bis((2-fluoro-4-pyridinyl)methyl)-9H-fluoren-1-amine] returned an EC50 in assay [1] of 570 nM.
Regarding `c1ccc(-n2cc3c(n2)-n2cccc2C3(Cc2ccncc2)Cc2ccncc2)cc1` [Example 15, 2,4-Dihydro-2-phenyl-4,4-bis(4-pyridinylmethyl)pyrazolo[4,3-B]pyrrolizine], the activation at 10 µM in assay [1] came to 348%.
Consider `C#Cc1ccc2c(c1)C(Cc1ccnc(F)c1)(Cc1ccnc(F)c1)c1cccnc1-2` [Example 79, 5,5-Bis((2-fluoro-4-pyridinyl)methyl)-7-(ethynyl)-5H-indeno-[1,2-b]pyridine], for which, in assay [1], the EC50 came to 2650 nM.
